Laboratory results: paper PMC9037311 (RSC Advances, 2021)

Assay: Pharmacokinetic study after oral administration to rats
Type: in vivo, Sprague-Dawley male rats

In the case of `O=C([O-])Cc1ccccc1Nc1c(Cl)cccc1Cl.[K+]` [DCFP, Diclofenac potassium], the “AUC(0–t)” value (25 mg kg^−1) is reported as 53.99 ± 3.18 mg/L/h, the “AUC(0–∞)” value (25 mg kg^−1) is reported as 59.22 ± 5.23 mg/L/h and the Cmax (25 mg kg^−1) is reported as 15520 ± 1050 ng/mL. The blood drug concentration (at 10 h) was “nearly undetectable” and the blood drug concentration (within 1 h) was “not detectable”.
